Earlier results as cited in patent publication US20190175504A1, “Carbohydrate-Derivatized Liposomes for Targeting Cellular Carbohydrate Recognition Domains of Ctl/Ctld Lectins, and Intracellular Delivery of Therapeutically Active Compounds” (RODOS BioTarget GmbH, priority 2004, published 2019).

Key:
[1] = test system: mouse model of liver damage

Structure (SMILES)	antifibrotic effect (bile duct-ligated mouse)	pathologic values of liver parameters (e.g., ALT) (HCV-positive patients)	apoptosis in liver damage [1]
C[C@H](NC(=O)C(=O)Nc1ccccc1C(C)(C)C)C(=O)N[C@@H](CC(=O)O)C(=O)COc1c(F)c(F)cc(F)c1F [IDN-6556]	proven beneficial as an antifibrotic agent	significantly reduces	
Cc1ccc(C(=O)Nc2ccc(S(=O)(=O)O)c3cc(S(=O)(=O)O)cc(S(=O)(=O)O)c23)cc1NC(=O)c1cccc(NC(=O)Nc2cccc(C(=O)Nc3cc(C(=O)Nc4ccc(S(=O)(=O)O)c5cc(S(=O)(=O)O)cc(S(=O)(=O)O)c45)ccc3C)c2)c1 [suramin]			inhibit apoptosis
